We go through three substances from publication PMC10261008, “A peptide triple agonist of GLP-1, neuropeptide Y1, and neuropeptide Y2 receptors promotes glycemic control and weight loss” (Scientific Reports, 2023).

pEC50, pIC50: −log10 of the molar value. Square brackets hold non-standard residues; d marks the D form. Ends that are not written are not given here.

One series relates to patients. The settings on record: cited from earlier work.
A further series relates to DIO Wistar rats. Description: Dose escalation study of food intake and tolerability in diet-induced obese male rats. The settings on record: s.c. once daily. In kind it is in vivo, rat.
The target of series [1] is T1, human Y2-R (Homo sapiens, UniProt P49146).
T1 sequence (P49146 1-381): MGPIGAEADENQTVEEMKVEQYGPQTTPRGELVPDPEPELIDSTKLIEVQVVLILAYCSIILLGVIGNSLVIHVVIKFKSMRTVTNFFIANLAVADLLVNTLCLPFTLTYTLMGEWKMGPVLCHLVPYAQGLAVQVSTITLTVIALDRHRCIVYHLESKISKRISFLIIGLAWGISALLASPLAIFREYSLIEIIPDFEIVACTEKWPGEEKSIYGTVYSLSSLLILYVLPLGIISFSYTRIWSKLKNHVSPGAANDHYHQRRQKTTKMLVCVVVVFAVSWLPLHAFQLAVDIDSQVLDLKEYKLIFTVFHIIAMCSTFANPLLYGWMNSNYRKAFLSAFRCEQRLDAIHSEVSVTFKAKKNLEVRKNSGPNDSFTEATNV
Description: Radioligand competitive binding assay at Y2-R in CHO-K1 cells. The settings on record: 1 pM–1 µM, duplicate independent runs, read-out: half-maximal binding at Y2-R.

Series [2] has as its target T2, human GLP-1R (Homo sapiens, UniProt P43220). Description: Agonist-activated internalization of GLP-1R. In kind it is cell-based. The settings on record: dose–response 30 pM–1 µM, duplicate.
Description: Human GLP-1R (Gs-coupled) cell-based agonist-activated internalization assays were performed by Eurofins Discovery.
Series [3] concerns lean and diet-induced obese (DIO) rats. Also on record: method as in PMID 33449689. Conditions: rat, in vivo; cited from earlier work.
The target of series [4] is T1, human Y2-R. Description: Y2-R agonism: counteraction of adenosine-stimulated cAMP (FRET) in HEK293 C24 cells transfected with Y2-R. In kind it is cell-based. The settings on record: HEK293 C24 cells transiently transfected with Y2-R, 20 min pre-treatment; also reported previously [16]; read-out: IC50, inhibition of adenosine-stimulated cAMP production at Y2-R. The method, then: H188 virally transduced HEK293 cells stably expressing human GLP-1R were obtained from Novo Nordisk A/S for use in FRET assays. HEK293 C24 cells stably expressing the H188 FRET reporter were obtained by G418 selection and grown in monolayers to ∼70% confluency in 100 cm^2 tissue culture dishes and were then transfected with plasmids (11 μg/dish) encoding human GLP-1R, human Y2-R, or human Y1-R. Transfected cells were then incubated for 48 h in fresh culture media. For real-time FRET kinetic assays, cells were harvested, resuspended in 21 mL of SES buffer, and plated at 196 μL per well. Plated cells were pretreated with 4 μL of agonist, or antagonist (Ex9-39 (GLP-1R antagonist) or BIIE0246 (Y2-R antagonist)), at a given target concentration and incubated for 20 min before performing the assay. Y1-R and Y2-R agonism to stimulate Gi proteins and to inhibit adenylyl cyclase was monitored by detecting the ability of PYY peptides, GEP44, or GEP12 to counteract the ability of Adenosine (acting through endogenous A2B receptor and Gs proteins) to increase levels of cAMP. For these assays, increased levels of cAMP were measured as an increase of the 485/535 nm FRET ratio serving as a readout for binding of cAMP to the H188 biosensor that is based on the exchange protein activated by cAMP[15].

Another series has as its target T3, human Y1-R (Homo sapiens, UniProt P25929).
T3 construct: His tag; purchased antibodies-online Inc. ABIN7086253
T3 sequence (P25929 1-384): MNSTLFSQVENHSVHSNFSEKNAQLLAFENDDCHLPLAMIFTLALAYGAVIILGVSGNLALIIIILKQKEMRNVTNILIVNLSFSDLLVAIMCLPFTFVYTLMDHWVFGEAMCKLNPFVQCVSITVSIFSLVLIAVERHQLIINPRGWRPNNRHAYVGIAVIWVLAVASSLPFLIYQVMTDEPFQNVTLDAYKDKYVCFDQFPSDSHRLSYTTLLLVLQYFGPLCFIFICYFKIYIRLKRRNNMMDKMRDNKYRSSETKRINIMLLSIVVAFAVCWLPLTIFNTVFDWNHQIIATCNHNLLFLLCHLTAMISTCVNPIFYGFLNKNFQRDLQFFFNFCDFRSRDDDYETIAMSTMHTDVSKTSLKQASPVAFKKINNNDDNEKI
Description: SPR binding at Y1-R. Conditions: in-house SPR, 4 pM–19 µM; read-out: half-maximal binding at Y1-R. A general note: Surface plasmon resonance follows binding to a sensor surface in real time, without labels.

Series [5] has as its target T2, human GLP-1R. Description: β-arrestin-2 recruitment at GLP-1R. The format is cell-based. Conditions: dose–response 5.51 pM–551 nM, duplicate.
Series [6] addresses T2, human GLP-1R. Description: cAMP FRET agonism at GLP-1R in H188-GLP-1R transduced HEK293 cells. In kind it is cell-based. The settings on record: FRET ratio tracking cAMP, Fig. 1A.
Description: H188 virally transduced HEK293 cells stably expressing human GLP-1R were obtained from Novo Nordisk A/S for use in FRET assays. HEK293 C24 cells stably expressing the H188 FRET reporter were obtained by G418 selection and grown in monolayers to ∼70% confluency in 100 cm^2 tissue culture dishes and were then transfected with plasmids (11 μg/dish) encoding human GLP-1R, human Y2-R, or human Y1-R. Transfected cells were then incubated for 48 h in fresh culture media. For real-time FRET kinetic assays, cells were harvested, resuspended in 21 mL of SES buffer, and plated at 196 μL per well. […] Y1-R and Y2-R agonism to stimulate Gi proteins and to inhibit adenylyl cyclase was monitored by detecting the ability of PYY peptides, GEP44, or GEP12 to counteract the ability of Adenosine (acting through endogenous A2B receptor and Gs proteins) to increase levels of cAMP. For these assays, increased levels of cAMP were measured as an increase of the 485/535 nm FRET ratio serving as a readout for binding of cAMP to the H188 biosensor that is based on the exchange protein activated by cAMP[15].
Series [7] has as its target T2, human GLP-1R. Description: SPR binding to His-tagged GLP-1R on NTA sensor. The settings on record: in-house SPR, 0.1–100 nM, duplicate.

T2 sequence (P43220 24-463): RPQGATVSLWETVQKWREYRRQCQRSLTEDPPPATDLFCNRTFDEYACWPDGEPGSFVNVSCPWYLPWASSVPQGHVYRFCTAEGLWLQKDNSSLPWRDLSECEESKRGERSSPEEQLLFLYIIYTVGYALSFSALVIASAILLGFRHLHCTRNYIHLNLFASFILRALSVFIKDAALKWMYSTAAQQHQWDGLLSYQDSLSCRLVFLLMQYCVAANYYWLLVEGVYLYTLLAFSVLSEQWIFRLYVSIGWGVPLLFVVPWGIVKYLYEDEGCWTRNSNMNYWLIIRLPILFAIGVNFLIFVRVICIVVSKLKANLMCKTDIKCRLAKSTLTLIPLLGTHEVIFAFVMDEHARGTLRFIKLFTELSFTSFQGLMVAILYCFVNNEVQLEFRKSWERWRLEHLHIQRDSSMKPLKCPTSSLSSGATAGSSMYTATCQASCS
Description for DIO Wistar rats: Wistar rats purchased from Charles River Laboratories (Wilmington, MA) were used in this study. The rats were provided with ad libitum access to food and water and were kept on a 12 h light/12 h dark cycle. For all other experiments, male rats (51–75 g; approximately 4 weeks of age) were fed a diet with 60% of the calories provided by fat (D12492; Research Diets, Inc; New Brunswick, NJ; 5.21 kcal/g) for approximately five months before the start of the study generate diet-induced obesity (DIO). Animals were individually housed in a temperature (22 ± 1 °C) and humidity-controlled (57 ± 4%) room. All body weight measurements were taken just before the start of the dark cycle.
GEP44 stock solutions were prepared using sterile ultra-pure H2O and gently agitated at 4 °C for > 24 h and then aliquoted and stored at − 20 °C. […] GEP12 (aliquots up to 5 mg) was dissolved in 100 µL DMSO and mixed at 1000 rpm for three min to create a stock solution. Stock solutions were diluted to working solutions in 0.9% normal saline, resulting in a final DMSO concentration of < 2%. […]
Rats were singly housed in BioDAQ cages and allowed to acclimate for at least 10 days before the start of this study. […] Body weight was assessed daily just before the start of the dark cycle. Food and water were available ad libitum and consumption was monitored continuously.
Description for human Y1-R: Peptides were precipitated with cold (4 °C) diethyl ether and purified on an Agilent 1200 series High-Performance Liquid Chromatography (HPLC) instrument (10–75% HPLC-grade acetonitrile for 20 min at a 2 mL/min flow rate over an Agilent Zorbax C18 column (5 µm, 9.4 × 250 mm) tracked at 220, 254, and 280 nm. Peptides were purified to > 95%. Peptide binding was assayed by EuroscreenFast (Gosselies, Belgium) or in-house with a Nicoya Open Surface Plasmon Resonance (SPR) instrument. Internalization and β-arrestin recruitment assays were performed by Eurofins Discovery (Fremont, CA, USA).
Peptide binding to human Y1-R was performed in-house by SPR.

Turning to tirzepatide, the “patients achieving a weight loss of 20% and more” value in the series with patients (10 or 15 mg per week) is “at least 50%”. In the series on patients (human, in vivo), the “diarrhea, incidence” value is on record as 15–17%; the “discontinuation of treatment due to gastrointestinal symptoms” value is 3–7%; the “nausea, incidence” value was 12–24%; the “vomiting, incidence” value is 6–10%.

A word on the pEC50: it is the negative decadic logarithm of the EC50, by convention in mol/L. “H[dS]QGTFTSDLSKYLEEEAVREFIAWLKNGGPSRHYLNLVTRQRY-NH2 [GEP44]”: the “no observed adverse effect level (NOAEL)” value in the series on DIO Wistar rats is given as 20 nmol/kg/day. Moreover, the pIC50 on human Y2-R [1] was 7.18; on human Y2-R [4], 7.47; on human Y1-R, 7.06. The pEC50 on human GLP-1R [2] was 8.40; on human GLP-1R [5], 8.80. The visceral malaise result in [3] is recorded as “no visceral malaise”.

As to “F[dS]QGTFTSDLSKYLEEEAVREFIAWLKNGGPSRHYLNLVTRQRY-NH2 [GEP12]”, on human GLP-1R [6], the negative-log EC50 (pEC50) was 7.76. Also, the pIC50 at human GLP-1R [7] was 7.72.
